Earlier results as cited in US20080119444A1, “Methods and compositions for the treatment of cancer” (priority 2006, published 2008).

Key:
[1] = exemestane vs tamoxifen
[2] = system: breast cancer; details: for disease-free survival: after 2 to 3 years of tamoxifen: switch to exemestane or continue tamoxifen, total 5 years, median follow-up 30.6 months
[3] = system: early breast cancer; details: for contralateral breast cancers (events) / disease-free survival events / distant metastases (events) / time-to-recurrence events: median follow-up 68 months
[4] = system: ER+ breast cancer
[5] = ATAC trial
[6] = tamoxifen users
[7] = target: T1, HMG-CoA reductase (Homo sapiens, UniProt P04035)
T1 sequence (P04035 1-888): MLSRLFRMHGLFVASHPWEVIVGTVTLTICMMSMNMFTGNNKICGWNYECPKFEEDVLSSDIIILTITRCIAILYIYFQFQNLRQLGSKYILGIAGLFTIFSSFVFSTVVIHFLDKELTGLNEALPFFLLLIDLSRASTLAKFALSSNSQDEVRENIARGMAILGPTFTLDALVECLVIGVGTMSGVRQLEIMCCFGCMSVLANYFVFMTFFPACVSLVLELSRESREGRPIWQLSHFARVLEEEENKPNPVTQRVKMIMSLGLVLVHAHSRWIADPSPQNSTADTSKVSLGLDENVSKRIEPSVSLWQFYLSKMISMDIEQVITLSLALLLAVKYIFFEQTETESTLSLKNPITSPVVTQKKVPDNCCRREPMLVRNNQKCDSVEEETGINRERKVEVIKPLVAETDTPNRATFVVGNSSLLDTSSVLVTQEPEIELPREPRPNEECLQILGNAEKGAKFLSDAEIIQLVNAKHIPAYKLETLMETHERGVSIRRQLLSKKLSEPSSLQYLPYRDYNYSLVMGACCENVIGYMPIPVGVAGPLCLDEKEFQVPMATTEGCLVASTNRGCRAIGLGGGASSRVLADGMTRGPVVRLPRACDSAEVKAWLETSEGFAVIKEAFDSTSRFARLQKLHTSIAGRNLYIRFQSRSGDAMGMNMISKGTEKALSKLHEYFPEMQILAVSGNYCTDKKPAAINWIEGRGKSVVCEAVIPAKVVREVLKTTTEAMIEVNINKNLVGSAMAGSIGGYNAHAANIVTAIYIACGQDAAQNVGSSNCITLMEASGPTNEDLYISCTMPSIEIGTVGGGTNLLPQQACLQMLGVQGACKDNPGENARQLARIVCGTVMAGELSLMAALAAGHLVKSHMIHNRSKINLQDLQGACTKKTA

[8] = in vivo
[9] = system: endocrine-responsive breast cancer; details: adjuvant letrozole compared with tamoxifen, postmenopausal women
[10] = sequence tamoxifen then exemestane vs continued tamoxifen
[11] = 5 years of tamoxifen treatment, women with ER+ disease
[12] = at 15 years, ER+ (or ER unknown) tumors, 5 years of tamoxifen

Structure (SMILES) | fracture rate compared to tamoxifen | disease-free survival [2] [%] | contralateral breast cancers (events) [3] | disease-free survival events [3] [events] | distant metastases (events) [3] | time-to-recurrence events [3] | withdrawal rate for drug-related adverse events [5] [%] | potency relative to another statin [7] | other results
C=C1C[C@@H]2[C@H](CC[C@]3(C)C(=O)CC[C@@H]23)[C@@]2(C)C=CC(=O)C=C12 [exemestane] | non-significant increase in fracture rate | 91.5 |  |  |  |  |  |  | bone loss during treatment (compared to placebo): minor bone loss; diarrhea [1]: 4.3%; absolute difference in disease-free survival [2, 10]: 4.7%; disease-free survival HR [2, 10]: 0.68
CC/C(=C(\c1ccccc1)c1ccc(OCCN(C)C)cc1)c1ccccc1 [tamoxifen] |  | 86.8 | 59 | 651 | 375 | 498 | 7.2 |  | reduction of annual rate of mortality [4, 11]: 34%; reduction of annual rate of recurrence [4, 11]: 41%; absolute reduction in mortality [4, 12]: 9.2%; absolute reduction in recurrence [4, 12]: 11.8%; 10-year risk of mortality from endometrial cancer [6]: 2 per 1000
CC(C)c1c(C(=O)Nc2ccccc2)c(-c2ccccc2)c(-c2ccc(F)cc2)n1CC[C@@H](O)C[C@@H](O)CC(=O)O [Atorvastatin, atorvastatin] |  |  |  |  |  |  |  | approximately twice as potent as simvastatin | 
CC(C)c1nc(N(C)S(C)(=O)=O)nc(-c2ccc(F)cc2)c1/C=C/[C@@H](O)C[C@@H](O)CC(=O)O [rosuvastatin] |  |  |  |  |  |  |  | more potent than atorvastatin | 
N#Cc1ccc(C(c2ccc(C#N)cc2)n2cncn2)cc1 [letrozole] | significantly increase fracture rate |  |  |  |  |  |  |  | grade 3, 4, or 5 cardiac events [8]: 2.1%; patients with hypercholesterolemia reported at least once during treatment [8]: 43.6%; fracture rate compared to placebo (compared to placebo): non-significant increase in fracture rate; risk of recurrent disease [9]: reduced the risk of recurrent disease
CC(C)(C#N)c1cc(Cn2cncn2)cc(C(C)(C)C#N)c1 [anastrozole] |  |  | 35 | 575 | 324 | 402 | 5.1 |  | reduction of contralateral breast cancers ([3]; anastrozole vs tamoxifen): 42%
